In PubChem BioAssay (NCI):
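The compound was tested at five concentrations on cells cultured in 96-well plates, with a 48-hour exposure period. The concentration for full growth arrest is given as TGI.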

Tests used:
Assay in all cases: NCI-60 cell line screen, 48 h
[1] = system: SW-620 colon
[2] = system: MCF7 breast
[3] = system: SNB-75 CNS
[4] = system: SK-MEL-5 melanoma
[5] = system: RXF 393 renal
[6] = system: A549 NSCLC
[7] = system: MDA-MB-435
[8] = system: DU-145 prostate
[9] = system: U251 CNS
[10] = system: LOX IMVI melanoma

Row | SMILES | TGI [1] [µM] | TGI [2] [µM] | TGI [3] [µM] | TGI [4] [µM] | TGI [5] [µM] | TGI [6] [µM] | TGI [7] [µM] | TGI [8] [µM] | TGI [9] [µM] | TGI [10] [µM]
1 | CCCCCCCCCCCCCCCCCCNC(=O)OCC(CNS(=O)(=O)CCC[n+]1cccc2ccccc21)COC (stereo unspecified) | 11.8 | 3.68 | 6.84 | 7.03 | 55.8 | 25.9 | 4.94 | 34.3 |  | 
2 | Cc1ccc(/C=C2/NC(=S)SC2=O)cc1 | > 100 | > 100 | 80.8 | > 100 |  | > 100 | > 100 | > 100 | > 100 | > 100
3 | O=c1c2cc(Br)ccc2ncn1COCc1ccccc1 | > 100 | > 100 |  | > 100 | > 100 | > 100 | > 100 | > 100 | > 100 | > 100
4 | Cc1cn(CCOCCOC(=O)NC(CCCNC(N)=O)C(=O)O)c(=O)[nH]c1=O (stereo unspecified) | > 100 | > 100 | > 100 |  | > 100 | > 100 | > 100 | > 100 | > 100 | > 100
5 | COc1cc2c(cc1OC)C(=O)/C(=C/c1ccc(O)cc1)CC2 | > 10 | > 10 |  | > 10 | > 10 | > 10 | > 10 | > 10 | > 10 | > 10
6 | O=[N+]([O-])c1ccc2nc(/C=C(\O)c3ccc(Cl)cc3)c(/C=C(\O)c3ccc(Cl)cc3)nc2c1 |  | > 100 | > 100 | > 100 | > 100 | > 100 | > 100 | > 100 | > 100 | 
7 | C=CC(OC(C)=O)c1ccc(OC(C)=O)cc1 (stereo unspecified) |  | 26.5 | 31.5 | 28.7 | 28.1 | 43.6 | 11.9 | 27.1 | 5.65 | 9
8 | COc1cc(S(=O)(=O)Nc2ccc(-c3csc(/N=C\c4ccccc4)n3)cc2)ccc1Cl | > 100 | 49.9 | > 100 | > 100 | > 100 | > 100 | > 100 | > 100 |  | > 100
9 | CCn1c(=O)c2c3ccc(OC(C)=O)cc3[nH]c2c2ccc(OC(C)=O)cc21 | > 100 | > 100 | 89.5 | > 100 | > 100 | > 100 | > 100 | 49.1 | > 100 | 
10 | C=CCOC1(CC=C)C(=O)OC2C(O)COC21O (stereo unspecified) | > 100 | > 100 |  | > 100 | > 100 | > 100 | > 100 | > 100 | > 100 | > 100
11 | COC(=O)[C@@H]1C=C[C@H](NC(C)=O)C1 | > 100 | > 100 | > 100 | > 100 | > 100 |  | > 100 | > 100 | > 100 | > 100
12 | O=c1oc2cccnc2n1CCCCN1CCN(c2ccccc2)CC1 | > 100 | > 100 |  | > 100 | > 100 | > 100 | > 100 | > 100 | > 100 | > 100
13 | CC(=O)NC(=O)NC1=NCCC(=O)N1CCc1c[nH]c2ccccc12 | > 100 | > 100 |  | > 100 | > 100 | > 100 | > 100 | > 100 | > 100 | > 100
14 | CCN(CCCl)c1cccc(NC(=O)c2ccc(C(=O)Nc3cccc(CN(C)C)c3)cc2)c1 | 11.9 | 1.09 | 0.759 |  | 0.0298 | 12.2 | 0.114 | 12.2 | 4.08 | 0.177
15 | NNC(=O)Cn1ccnn1 | > 100 | > 100 | > 100 | > 100 |  | > 100 | > 100 | > 100 | > 100 | > 100
16 | COc1cc2oc(=O)cc(C)c2c(OC)c1OC(C)=O | > 100 | > 100 | > 100 | > 100 |  | > 100 | > 100 | > 100 | > 100 | > 100
17 | COc1ccc(OC)c(C[P+](c2ccccc2)(c2ccccc2)c2ccccc2)c1 | > 100 | > 40.7 | 22.2 | 3.32 | 25.8 | > 56.4 | 13.7 | > 79.4 |  | 13.2
